# Measurements published in patent publication US10421761B2, “Compounds for kinase modulation, and indications therefor” (Plexxikon Inc., priority 2013, dated 2019).
# Read-outs that look alike come from different tables or passages of the source.
# System: B9 cells
smiles,measurement,setting,value
CCCS(=O)(=O)Nc1ccc(F)c(C(=O)c2c[nH]c3ncc(-c4ccc(Cl)cc4)cc23)c1F [vemurafenib],"probe 1416811_s_at response, Ctla2a /// Ctla2b (cytotoxic T lymphocyte-associated protein 2 alpha /// cytotoxic T lymphocyte-associated protein 2 beta)",,1.92
same,"probe 1452352_at response, Ctla2b (cytotoxic T lymphocyte-associated protein 2 beta)",,2.37
same,expression of gene probe 1416454_s_at (Acta2),"B9 cells, Repl. 1",0.23
same,expression of gene probe 1416612_at (Cyp1b1),"B9 cells, Repl. 1",0.19
same,expression of gene probe 1418240_at (Gbp2),"B9 cells, Repl. 1",0.30
same,expression of gene probe 1418497_at (Fgf13),"B9 cells, Repl. 1",0.39
same,expression of gene probe 1419089_at (Timp3),"B9 cells, Repl. 1",0.26
same,expression of gene probe 1427183_at (Efemp1),"B9 cells, Repl. 1",0.30
same,expression of gene probe 1427747_a_at (Lcn2),"B9 cells, Repl. 1",0.36
same,expression of gene probe 1435906_x_at (Gbp2),"B9 cells, Repl. 1",0.21
same,expression of gene probe 1438931_s_at (LOC100047324 /// Sesn1),"B9 cells, Repl. 1",0.35
same,expression of gene probe 1438988_x_at (Hn1),"B9 cells, Repl. 1",0.26
same,expression of gene probe 1440147_at (Lgi2),"B9 cells, Repl. 1",0.34
same,expression of gene probe 1448734_at (Cp),"B9 cells, Repl. 1",0.31
same,expression of gene probe 1449227_at (Ch25h),"B9 cells, Repl. 1",0.25
same,expression of gene probe 1449335_at (Timp3),"B9 cells, Repl. 1",0.24
same,expression of gene probe 1449340_at (Sostdc1),"B9 cells, Repl. 1",0.17
same,expression of gene probe 1449815_a_at (Ssbp2),"B9 cells, Repl. 1",0.38
same,expression of gene probe 1450618_a_at (Sprr2a),"B9 cells, Repl. 1",0.36
same,expression of gene probe 1460250_at (Sostdc1),"B9 cells, Repl. 1",0.23
same,expression of gene probe 1416454_s_at (Acta2),"B9 cells, Repl. 2",0.20
same,expression of gene probe 1416612_at (Cyp1b1),"B9 cells, Repl. 2",0.16
same,expression of gene probe 1418240_at (Gbp2),"B9 cells, Repl. 2",0.28
same,expression of gene probe 1418497_at (Fgf13),"B9 cells, Repl. 2",0.38
same,expression of gene probe 1419089_at (Timp3),"B9 cells, Repl. 2",0.31
same,expression of gene probe 1427183_at (Efemp1),"B9 cells, Repl. 2",0.37
same,expression of gene probe 1427747_a_at (Lcn2),"B9 cells, Repl. 2",0.35
same,expression of gene probe 1435906_x_at (Gbp2),"B9 cells, Repl. 2",0.30
same,expression of gene probe 1438931_s_at (LOC100047324 /// Sesn1),"B9 cells, Repl. 2",0.33
same,expression of gene probe 1438988_x_at (Hn1),"B9 cells, Repl. 2",0.27
same,expression of gene probe 1440147_at (Lgi2),"B9 cells, Repl. 2",0.38
same,expression of gene probe 1448734_at (Cp),"B9 cells, Repl. 2",0.30
same,expression of gene probe 1449227_at (Ch25h),"B9 cells, Repl. 2",0.29
same,expression of gene probe 1449335_at (Timp3),"B9 cells, Repl. 2",0.36
same,expression of gene probe 1449340_at (Sostdc1),"B9 cells, Repl. 2",0.20
same,expression of gene probe 1449815_a_at (Ssbp2),"B9 cells, Repl. 2",0.38
same,expression of gene probe 1450618_a_at (Sprr2a),"B9 cells, Repl. 2",0.41
same,expression of gene probe 1460250_at (Sostdc1),"B9 cells, Repl. 2",0.20
same,"probe 1415828_a_at response, Serp1 (stress-associated endoplasmic reticulum protein 1)","Repl. 1, B9 cells",2.05
same,"probe 1415936_at response, Bcar3 (breast cancer anti-estrogen resistance 3)","Repl. 1, B9 cells",2.21
same,"probe 1416129_at response, Errfi1 (ERBB receptor feedback inhibitor 1)","Repl. 1, B9 cells",3.31
same,"probe 1416246_a_at response, Coro1a (coronin, actin binding protein 1A)","Repl. 1, B9 cells",1.90
same,"probe 1416325_at response, Crisp 1 (cysteine-rich secretory protein 1)","Repl. 1, B9 cells",5.15
same,"probe 1416401_at response, Cd82 (CD82 antigen)","Repl. 1, B9 cells",2.87
same,"probe 1416488_at response, Ccng2 (cyclin G2)","Repl. 1, B9 cells",2.23
same,"probe 1416527_at response, Rab32 (RAB32, member RAS oncogene family)","Repl. 1, B9 cells",0.42
same,"probe 1416811_s_at response, Ctla2a /// Ctla2b (cytotoxic T lymphocyte-associated protein 2 alpha /// cytotoxic T lymphocyte-associated protein 2 beta)","Repl. 1, B9 cells",2.28
same,"probe 1417065_at response, Egr1 (early growth response 1)","Repl. 1, B9 cells",4.13
same,"probe 1417130_s_at response, Angptl4 (angiopoietin-like 4)","Repl. 1, B9 cells",3.10
same,"probe 1417328_at response, Ercc1 (excision repair cross-complementing rodent repair deficiency, complementation group 1)","Repl. 1, B9 cells",2.20
same,"probe 1417488_at response, Fosl1 (fos-like antigen 1)","Repl. 1, B9 cells",2.09
same,"probe 1417494_a_at response, Cp (ceruloplasmin)","Repl. 1, B9 cells",0.39
same,"probe 1417495_x_at response, Cp (ceruloplasmin)","Repl. 1, B9 cells",0.48
same,"probe 1417533_a_at response, Itgb5 (integrin beta 5)","Repl. 1, B9 cells",0.50
same,"probe 1417625_s_at response, Cxcr7 (chemokine (C-X-C motif) receptor 7)","Repl. 1, B9 cells",2.03
same,"probe 1417677_at response, Opn3 (opsin 3)","Repl. 1, B9 cells",2.18
same,"probe 1417812_a_at response, Lamb3 (laminin, beta 3)","Repl. 1, B9 cells",2.60
same,"probe 1417837_at response, Phlda2 (pleckstrin homology-like domain, family A, member 2)","Repl. 1, B9 cells",2.26
same,"probe 1417902_at response, Slc19a2 (solute carrier family 19 (thiamine transporter), member 2)","Repl. 1, B9 cells",2.00
